# From ChEMBL document CHEMBL1201862, “PubChem BioAssay data set” (2004)
#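 Five compound concentrations were applied to cells in 96-well plates for 48 hours; endpoints were derived by simple linear interpolation of the resulting dose-response curve. The concentration for 50% growth inhibition is given as GI50.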 Activity calls are given as the source filed them. Rule as the data show it: active = GI50 up to about 1.1 µM and inactive = higher.
# Legend:
# Assay in all cases: inhibition of tumour cell growth, NCI panel, 48 h
# 786-0 = test system: 786-0
# A498 = test system: A498
# A549 = test system: A549
# ACHN = test system: ACHN
# CAKI-1 = test system: CAKI-1
# CCRF-CEM = test system: CCRF-CEM
# COLO 205 = test system: COLO 205
# DLD-1 = test system: DLD-1
# DMS-114 = test system: DMS-114
# DMS-273 = test system: DMS-273
# EKVX = test system: EKVX
# HCC 2998 = test system: HCC 2998
# HCT-15 = test system: HCT-15
# HL-60 = test system: HL-60
# HOP-18 = test system: HOP-18
# HOP-62 = test system: HOP-62
# HT-29 = test system: HT-29
# IGROV-1 = test system: IGROV-1
# K562 = test system: K562
# KM-20L2 = test system: KM-20L2
# KM12 = test system: KM12
# LOX IMVI = test system: LOX IMVI
# LXFL 529 = test system: LXFL 529
# M14 = test system: M14
# M19-MEL = test system: M19-MEL
# MOLT-4 = test system: MOLT-4
# Malme-3M = test system: Malme-3M
# NCI-H226 = test system: NCI-H226
# NCI-H23 = test system: NCI-H23
# NCI-H460 = test system: NCI-H460
# NCI-H522 = test system: NCI-H522
# OVCAR-3 = test system: OVCAR-3
# OVCAR-4 = test system: OVCAR-4
# OVCAR-5 = test system: OVCAR-5
# OVCAR-8 = test system: OVCAR-8
# RPMI-8226 = test system: RPMI-8226
# RXF 393 = test system: RXF 393
# RXF 631 = test system: RXF 631
# SF-268 = test system: SF-268
# SF-295 = test system: SF-295
# SF-539 = test system: SF-539
# SK-MEL-28 = test system: SK-MEL-28
# SK-MEL-2 = test system: SK-MEL-2
# SK-MEL-5 = test system: SK-MEL-5
# SK-OV-3 = test system: SK-OV-3
# SN12C = test system: SN12C
# SNB-19 = test system: SNB-19
# SNB-75 = test system: SNB-75
# SW-620 = test system: SW-620
# TK-10 = test system: TK-10
# UACC-257 = test system: UACC-257
# UACC-62 = test system: UACC-62
# UO-31 = test system: UO-31
# XF498 = test system: XF498
# HCT-116 = test system: HCT-116
# HOP-92 = test system: HOP-92
# SNB-78 = test system: SNB-78
# SR = test system: SR
# U-251 = test system: U-251
smiles,measurement,setting,value
CCOc1ccc(NC(=O)CC2SC(Nc3ccc(Cl)cc3)=NC2=O)cc1 (configuration not stated),GI50,786-0,> 100 µM (inactive)
same,GI50,A498,44.8 µM (inactive)
same,GI50,A549,> 100 µM (inactive)
same,GI50,ACHN,> 100 µM (inactive)
same,GI50,CAKI-1,21.5 µM (inactive)
same,GI50,CCRF-CEM,18.3 µM (inactive)
same,GI50,COLO 205,> 100 µM (inactive)
same,GI50,DLD-1,36 µM (inactive)
same,GI50,DMS-114,> 100 µM (inactive)
same,GI50,DMS-273,> 100 µM (inactive)
same,GI50,EKVX,> 100 µM (inactive)
same,GI50,HCC 2998,> 100 µM (inactive)
same,GI50,HCT-15,95.3 µM
same,GI50,HL-60,24.2 µM (inactive)
same,GI50,HOP-18,> 100 µM (inactive)
same,GI50,HOP-62,> 100 µM (inactive)
same,GI50,HT-29,> 100 µM (inactive)
same,GI50,IGROV-1,> 100 µM (inactive)
same,GI50,K562,23.9 µM (inactive)
same,GI50,KM-20L2,> 100 µM (inactive)
same,GI50,KM12,> 100 µM (inactive)
same,GI50,LOX IMVI,> 100 µM (inactive)
same,GI50,LXFL 529,41.8 µM (inactive)
same,GI50,M14,> 100 µM (inactive)
same,GI50,M19-MEL,> 100 µM (inactive)
same,GI50,MOLT-4,29.4 µM (inactive)
same,GI50,Malme-3M,> 100 µM (inactive)
same,GI50,NCI-H226,> 100 µM (inactive)
same,GI50,NCI-H23,> 100 µM (inactive)
same,GI50,NCI-H460,> 100 µM (inactive)
same,GI50,NCI-H522,> 10 µM (inactive)
same,GI50,OVCAR-3,> 100 µM (inactive)
same,GI50,OVCAR-4,> 100 µM (inactive)
same,GI50,OVCAR-5,> 100 µM (inactive)
same,GI50,OVCAR-8,49.7 µM (inactive)
same,GI50,RPMI-8226,58.6 µM (inactive)
same,GI50,RXF 393,40.8 µM (inactive)
same,GI50,RXF 631,> 100 µM (inactive)
same,GI50,SF-268,> 100 µM (inactive)
same,GI50,SF-295,> 100 µM (inactive)
same,GI50,SF-539,> 100 µM (inactive)
same,GI50,SK-MEL-28,> 100 µM (inactive)
same,GI50,SK-MEL-2,> 100 µM (inactive)
same,GI50,SK-MEL-5,> 100 µM (inactive)
same,GI50,SK-OV-3,> 100 µM (inactive)
same,GI50,SN12C,> 100 µM (inactive)
same,GI50,SNB-19,> 100 µM (inactive)
same,GI50,SNB-75,29.8 µM (inactive)
same,GI50,SW-620,98.9 µM (inactive)
same,GI50,TK-10,> 100 µM (inactive)
same,GI50,UACC-257,> 100 µM (inactive)
same,GI50,UACC-62,> 100 µM (inactive)
same,GI50,UO-31,> 100 µM (inactive)
same,GI50,XF498,> 100 µM (inactive)
CCCCCCCCCCCCCCCCP(=O)(OC)OC,GI50,786-0,17.6 µM (inactive)
same,GI50,A549,17.7 µM (inactive)
same,GI50,ACHN,14.8 µM (inactive)
same,GI50,CAKI-1,16.6 µM (inactive)
same,GI50,CCRF-CEM,22.3 µM (inactive)
same,GI50,COLO 205,17 µM (inactive)
same,GI50,DLD-1,17.5 µM (inactive)
same,GI50,DMS-114,16.1 µM (inactive)
same,GI50,DMS-273,14.5 µM (inactive)
same,GI50,EKVX,15 µM (inactive)
same,GI50,HCC 2998,15.4 µM (inactive)
same,GI50,HCT-116,18.9 µM (inactive)
same,GI50,HCT-15,16.6 µM
same,GI50,HL-60,11.6 µM (inactive)
same,GI50,HOP-18,15 µM (inactive)
same,GI50,HOP-62,12 µM (inactive)
same,GI50,HOP-92,16.4 µM (inactive)
same,GI50,HT-29,17.5 µM (inactive)
same,GI50,IGROV-1,16.7 µM (inactive)
same,GI50,K562,22.5 µM (inactive)
same,GI50,KM-20L2,22.4 µM (inactive)
same,GI50,KM12,17.9 µM (inactive)
same,GI50,LOX IMVI,16.9 µM (inactive)
same,GI50,LXFL 529,15.8 µM (inactive)
same,GI50,M14,16.3 µM (inactive)
same,GI50,M19-MEL,16.4 µM (inactive)
same,GI50,MOLT-4,16.5 µM (inactive)
same,GI50,Malme-3M,18.2 µM (inactive)
same,GI50,NCI-H226,17.1 µM (inactive)
same,GI50,NCI-H23,16.5 µM (inactive)
same,GI50,NCI-H460,17.3 µM (inactive)
same,GI50,NCI-H522,13.5 µM (inactive)
same,GI50,OVCAR-3,17.8 µM (inactive)
same,GI50,OVCAR-4,20.7 µM (inactive)
same,GI50,OVCAR-5,13.9 µM (inactive)
same,GI50,OVCAR-8,15.8 µM (inactive)
same,GI50,RPMI-8226,13.2 µM (inactive)
same,GI50,RXF 393,19 µM (inactive)
same,GI50,RXF 631,16.9 µM (inactive)
same,GI50,SF-295,18 µM (inactive)
same,GI50,SF-539,20.6 µM (inactive)
same,GI50,SK-MEL-28,17.7 µM (inactive)
same,GI50,SK-MEL-2,16.4 µM (inactive)
same,GI50,SK-MEL-5,16.4 µM (inactive)
same,GI50,SK-OV-3,15.2 µM (inactive)
same,GI50,SN12C,17.2 µM (inactive)
same,GI50,SNB-19,15.2 µM (inactive)
same,GI50,SNB-75,16.6 µM (inactive)
same,GI50,SNB-78,17.7 µM (inactive)
same,GI50,SR,19.1 µM (inactive)
same,GI50,SW-620,14.7 µM (inactive)
same,GI50,TK-10,17.1 µM (inactive)
same,GI50,U-251,17.9 µM (inactive)
same,GI50,UACC-257,17.5 µM (inactive)
same,GI50,UACC-62,14.6 µM (inactive)
same,GI50,UO-31,11.7 µM (inactive)
same,GI50,XF498,13.1 µM (inactive)
COc1ccc2nc3cc(Cl)ccc3c(Sc3ccc(N)cc3)c2c1,GI50,786-0,6.95 µM (inactive)
same,GI50,A498,29.1 µM (inactive)
same,GI50,A549,12.5 µM (inactive)
same,GI50,ACHN,10.1 µM (inactive)
same,GI50,CAKI-1,12.9 µM (inactive)
same,GI50,CCRF-CEM,3.81 µM (inactive)
same,GI50,COLO 205,11.2 µM (inactive)
same,GI50,DLD-1,4.47 µM (inactive)
same,GI50,DMS-114,4.99 µM (inactive)
same,GI50,DMS-273,10.6 µM (inactive)
same,GI50,EKVX,11.7 µM (inactive)
same,GI50,HCC 2998,12.2 µM (inactive)
same,GI50,HCT-116,4.78 µM (inactive)
same,GI50,HCT-15,3.94 µM
same,GI50,HOP-18,12.2 µM (inactive)
same,GI50,HOP-62,24.2 µM (inactive)
same,GI50,HOP-92,24.4 µM (inactive)
same,GI50,IGROV-1,16.1 µM (inactive)
same,GI50,K562,3.42 µM (inactive)
same,GI50,KM-20L2,4.59 µM (inactive)
same,GI50,KM12,6.76 µM (inactive)
same,GI50,LOX IMVI,7.6 µM (inactive)
same,GI50,LXFL 529,4.32 µM (inactive)
same,GI50,M14,9.06 µM (inactive)
same,GI50,M19-MEL,7.62 µM (inactive)
same,GI50,MOLT-4,2.56 µM (inactive)
same,GI50,Malme-3M,15 µM (inactive)
same,GI50,NCI-H226,18.5 µM (inactive)
same,GI50,NCI-H23,14.1 µM (inactive)
same,GI50,NCI-H460,7.98 µM (inactive)
same,GI50,NCI-H522,4.83 µM (inactive)
same,GI50,OVCAR-3,9.57 µM (inactive)
same,GI50,OVCAR-4,15.5 µM (inactive)
same,GI50,OVCAR-5,19.8 µM (inactive)
same,GI50,OVCAR-8,11 µM (inactive)
same,GI50,RXF 393,11.7 µM (inactive)
same,GI50,RXF 631,11 µM (inactive)
same,GI50,SF-268,11.6 µM (inactive)
same,GI50,SF-295,16.7 µM (inactive)
same,GI50,SF-539,13.9 µM (inactive)
same,GI50,SK-MEL-28,14.9 µM (inactive)
same,GI50,SK-MEL-2,13.8 µM (inactive)
same,GI50,SK-MEL-5,12.4 µM (inactive)
same,GI50,SK-OV-3,4.37 µM (inactive)
same,GI50,SN12C,11.6 µM (inactive)
same,GI50,SNB-19,16.9 µM (inactive)
same,GI50,SNB-75,11 µM (inactive)
same,GI50,SNB-78,12.5 µM (inactive)
same,GI50,SR,2.62 µM (inactive)
same,GI50,SW-620,3.77 µM (inactive)
same,GI50,TK-10,13.2 µM (inactive)
same,GI50,U-251,10.5 µM (inactive)
same,GI50,UACC-257,13.2 µM (inactive)
same,GI50,UACC-62,5.04 µM (inactive)
same,GI50,UO-31,10.8 µM (inactive)
same,GI50,XF498,14.2 µM (inactive)
